Legend:
[1] = tested on: B. subtilis 168; assay: fitness (endpoint OD595 vs no drug) (fraction); higher = more growth
How it was run: (§1)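 Cultures at OD595 0.01 were dispensed into 384-well plates in TSB, LB Lennox or CY and incubated at 37 °C. Every 30 min for 14 h, OD595 was read and corrected by the first reading. Fitness is the optical density at entry into stationary phase relative to the robust mean of no-drug control wells, capped at 1.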

[2] = tested on: S. pneumoniae D39V; assay: as above
How it was run: as §1

[3] = tested on: B. subtilis 168; assay: Bliss interaction score (quartile over a dose matrix) (fitness difference); higher = more antagonism (negative = synergy)
How it was run: (§2)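 Quartiles of the Bliss score were taken over technical, biological and donor/recipient replicates. That score is observed fitness minus the product of the single-drug fitness values, which were inferred from combination data. Fitness itself is OD595 at entry into stationary phase divided by the plate's robust no-drug mean, with a cap at 1.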

[4] = tested on: S. aureus DSM 20231; assay: as above
How it was run: as §2

[5] = tested on: S. aureus Newman; assay: as above
How it was run: as §2

[6] = tested on: S. pneumoniae D39V; assay: as above
How it was run: as §2
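For Bliss interaction score (quartile over a dose matrix) in this document: first quartile when negative (synergy) and third quartile when positive (antagonism).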

O=C(O)c1cn(C2CC2)c2cc(N3CCNCC3)c(F)cc2c1=O [Ciprofloxacin] + C[C@H]1c2cccc(O)c2C(=O)C2=C(O)[C@]3(O)C(=O)C(C(N)=O)=C(O)[C@@H](N(C)C)[C@@H]3[C@@H](O)[C@@H]21 [Doxycycline]
fitness
Details	partner 0.0155 µg/mL	partner 0.02 µg/mL	partner 0.031 µg/mL	partner 0.04 µg/mL	partner 0.08 µg/mL
[1], first compound 0.0098 µg/mL	–	0.879	–	0.813	0.677
[1], first compound 0.0195 µg/mL	–	0.726	–	0.688	0.58
[2], first compound 0.125 µg/mL	0.891	–	0.742	–	–
[2], first compound 0.25 µg/mL	0.892	–	0.703	–	–

fitness, [2], one replicate
Details	first compound 0.125 µg/mL	first compound 0.25 µg/mL	first compound 0.5 µg/mL
partner 0.003875 µg/mL	≥ 1	0.931	0.804
partner 0.00775 µg/mL	0.967	0.913	0.825

Details	Bliss interaction score
[3]	0.183
[4]	0.0661
[5]	0.0631
[6]	0.0673

C[C@H]1c2cccc(O)c2C(=O)C2=C(O)[C@]3(O)C(=O)C(C(N)=O)=C(O)[C@@H](N(C)C)[C@@H]3[C@@H](O)[C@@H]21 [Doxycycline] + CN1C2=CC=CC=C2N=C3C1=CC=CC3=O [Pyocyanin]
Details	fitness
[1], first compound 0.02 µg/mL, partner 1.25 µg/mL	0.875
[1], first compound 0.02 µg/mL, partner 2.5 µg/mL	0.828
[1], first compound 0.02 µg/mL, partner 5 µg/mL	0.737
[1], first compound 0.04 µg/mL, partner 1.25 µg/mL	0.775
[1], first compound 0.04 µg/mL, partner 2.5 µg/mL	0.692
[1], first compound 0.04 µg/mL, partner 5 µg/mL	0.605
[1], first compound 0.08 µg/mL, partner 1.25 µg/mL	0.613
[1], first compound 0.08 µg/mL, partner 2.5 µg/mL	0.559
[1], first compound 0.08 µg/mL, partner 5 µg/mL	0.36
[2], first compound 0.0155 µg/mL, partner 0.325 µg/mL	≥ 1
[2], first compound 0.0155 µg/mL, partner 0.65 µg/mL	≥ 1
[2], first compound 0.0155 µg/mL, partner 1.3 µg/mL	0.823
[2], first compound 0.031 µg/mL, partner 0.325 µg/mL	0.941
[2], first compound 0.031 µg/mL, partner 0.65 µg/mL	0.97
[2], first compound 0.062 µg/mL, partner 0.325 µg/mL	0.857
[2], first compound 0.062 µg/mL, partner 0.65 µg/mL	0.87

fitness, [2], one replicate
Details	first compound 0.003875 µg/mL	first compound 0.00775 µg/mL	first compound 0.031 µg/mL	first compound 0.062 µg/mL
partner 0.325 µg/mL	≥ 1	≥ 1	–	–
partner 0.65 µg/mL	≥ 1	0.997	–	–
partner 1.3 µg/mL	0.741	0.737	0.854	0.694

Details	Bliss interaction score
[3]	0.092
[4]	0.0677
[5]	-0.0231
[6]	0.127

C[C@H]1c2cccc(O)c2C(=O)C2=C(O)[C@]3(O)C(=O)C(C(N)=O)=C(O)[C@@H](N(C)C)[C@@H]3[C@@H](O)[C@@H]21 [Doxycycline] + COc1c(N2C[C@@H]3CCCN[C@@H]3C2)c(F)cc2c(=O)c(C(=O)O)cn(C3CC3)c12 [Moxifloxacin]
Details	fitness
[1], first compound 0.02 µg/mL, partner 0.0312 µg/mL	0.0633
[1], first compound 0.02 µg/mL, partner 0.0625 µg/mL	0.0369
[1], first compound 0.02 µg/mL, partner 0.125 µg/mL	0.0526
[1], first compound 0.02 µg/mL, partner 2 µg/mL	0.0252
[1], first compound 0.02 µg/mL, partner 4 µg/mL	0.0301
[1], first compound 0.02 µg/mL, partner 8 µg/mL	0.061
[1], first compound 0.04 µg/mL, partner 0.0312 µg/mL	0.0435
[1], first compound 0.04 µg/mL, partner 0.0625 µg/mL	0.0347
[1], first compound 0.04 µg/mL, partner 0.125 µg/mL	0.0489
[1], first compound 0.04 µg/mL, partner 2 µg/mL	0.0204
[1], first compound 0.04 µg/mL, partner 4 µg/mL	0.013
[1], first compound 0.04 µg/mL, partner 8 µg/mL	0.0253
[1], first compound 0.08 µg/mL, partner 0.0625 µg/mL	0.03
[1], first compound 0.08 µg/mL, partner 0.125 µg/mL	0.0215
[1], first compound 0.08 µg/mL, partner 2 µg/mL	0.0234
[1], first compound 0.08 µg/mL, partner 4 µg/mL	0.0247
[1], first compound 0.08 µg/mL, partner 8 µg/mL	0.0278
[2], first compound 0.0155 µg/mL, partner 0.0037 µg/mL	0.791
[2], first compound 0.0155 µg/mL, partner 0.005 µg/mL	0.918
[2], first compound 0.0155 µg/mL, partner 0.0075 µg/mL	0.838
[2], first compound 0.0155 µg/mL, partner 0.01 µg/mL	0.919
[2], first compound 0.0155 µg/mL, partner 0.015 µg/mL	0.857
[2], first compound 0.0155 µg/mL, partner 0.02 µg/mL	0.834
[2], first compound 0.031 µg/mL, partner 0.005 µg/mL	0.886
[2], first compound 0.031 µg/mL, partner 0.01 µg/mL	0.896
[2], first compound 0.031 µg/mL, partner 0.02 µg/mL	0.783
[2], first compound 0.062 µg/mL, partner 0.005 µg/mL	0.807
[2], first compound 0.062 µg/mL, partner 0.01 µg/mL	0.856
[2], first compound 0.062 µg/mL, partner 0.02 µg/mL	0.807

fitness, [2], one replicate
Details	first compound 0.003875 µg/mL	first compound 0.00775 µg/mL	first compound 0.031 µg/mL	first compound 0.062 µg/mL
partner 0.0037 µg/mL	0.939	0.881	0.692	0.352
partner 0.0075 µg/mL	0.952	0.894	0.806	0.679
partner 0.015 µg/mL	0.909	0.874	0.721	0.59

Details	Bliss interaction score
[3]	0.0361
[4]	0.0965
[5]	0.036
[6]	-0.0559

— the supplement of paper PMC10627819
